Activity calls are given as the source filed them. The rule behind the calls is not given here.
How the values were obtained:
SW-620 [1] = experiment: Inhibition of colony formation in human SW620 cells at 50 nM after 14 days by crystal violet staining-based microscopic analysis; format: functional; details: SW-620, 336 h
[2] = target: Tyrosine-protein kinase receptor TYRO3 (Homo sapiens) (UniProt Q06418); experiment: Inhibition of human RSE (451 to end residues) using KVEKIGEGTYGVVYK as substrate measured after 40 mins in presence of [gamma33P]ATP by scintillation counting method; design: scale not given: the % may be the effect or the level left
[3] = target: Calcium/calmodulin-dependent protein kinase type 1G (Homo sapiens) (UniProt Q96NX5); experiment: Inhibition of human CaMK1gamma; design: scale not given: the % may be the effect or the level left
Sequence of Calcium/calmodulin-dependent protein kinase type 1G (Homo sapiens) (Q96NX5 whole entry): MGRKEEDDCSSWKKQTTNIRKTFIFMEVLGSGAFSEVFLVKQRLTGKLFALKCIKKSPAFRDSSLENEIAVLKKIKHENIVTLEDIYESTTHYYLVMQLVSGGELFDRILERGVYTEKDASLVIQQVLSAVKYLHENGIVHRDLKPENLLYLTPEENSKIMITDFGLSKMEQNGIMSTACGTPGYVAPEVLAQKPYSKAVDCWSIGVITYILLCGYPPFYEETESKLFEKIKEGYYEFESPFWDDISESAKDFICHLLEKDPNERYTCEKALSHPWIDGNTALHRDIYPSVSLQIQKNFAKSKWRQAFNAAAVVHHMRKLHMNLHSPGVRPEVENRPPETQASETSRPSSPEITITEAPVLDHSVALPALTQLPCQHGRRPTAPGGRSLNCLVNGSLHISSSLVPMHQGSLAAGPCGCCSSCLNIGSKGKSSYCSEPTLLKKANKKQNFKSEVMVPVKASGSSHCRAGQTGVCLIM

Homo sapiens [4] = organism: Homo sapiens; experiment: Inhibition of recombinant human BrSK2 S251I mutant (2 to end residues) assessed as residual activity at 10 uM using KKLNRTLSFAEPG as substrate measured after 40 mins in presence of [gamma33P]ATP by scintillation counting method
[5] = target: Ephrin type-A receptor 7 (Homo sapiens) (UniProt Q15375); experiment: Inhibition of recombinant human EphA7 (613 to 909 residues) assessed as residual activity at 10 uM using KTFCGTPEYLAPEVRREPRILSEEEQEMFRDFDYIADWC as substrate measured after 40 mins in presence of [gamma33P]ATP by scintillation counting method
Sequence of Ephrin type-A receptor 7 (Homo sapiens) (Q15375 28-998 limits assumed): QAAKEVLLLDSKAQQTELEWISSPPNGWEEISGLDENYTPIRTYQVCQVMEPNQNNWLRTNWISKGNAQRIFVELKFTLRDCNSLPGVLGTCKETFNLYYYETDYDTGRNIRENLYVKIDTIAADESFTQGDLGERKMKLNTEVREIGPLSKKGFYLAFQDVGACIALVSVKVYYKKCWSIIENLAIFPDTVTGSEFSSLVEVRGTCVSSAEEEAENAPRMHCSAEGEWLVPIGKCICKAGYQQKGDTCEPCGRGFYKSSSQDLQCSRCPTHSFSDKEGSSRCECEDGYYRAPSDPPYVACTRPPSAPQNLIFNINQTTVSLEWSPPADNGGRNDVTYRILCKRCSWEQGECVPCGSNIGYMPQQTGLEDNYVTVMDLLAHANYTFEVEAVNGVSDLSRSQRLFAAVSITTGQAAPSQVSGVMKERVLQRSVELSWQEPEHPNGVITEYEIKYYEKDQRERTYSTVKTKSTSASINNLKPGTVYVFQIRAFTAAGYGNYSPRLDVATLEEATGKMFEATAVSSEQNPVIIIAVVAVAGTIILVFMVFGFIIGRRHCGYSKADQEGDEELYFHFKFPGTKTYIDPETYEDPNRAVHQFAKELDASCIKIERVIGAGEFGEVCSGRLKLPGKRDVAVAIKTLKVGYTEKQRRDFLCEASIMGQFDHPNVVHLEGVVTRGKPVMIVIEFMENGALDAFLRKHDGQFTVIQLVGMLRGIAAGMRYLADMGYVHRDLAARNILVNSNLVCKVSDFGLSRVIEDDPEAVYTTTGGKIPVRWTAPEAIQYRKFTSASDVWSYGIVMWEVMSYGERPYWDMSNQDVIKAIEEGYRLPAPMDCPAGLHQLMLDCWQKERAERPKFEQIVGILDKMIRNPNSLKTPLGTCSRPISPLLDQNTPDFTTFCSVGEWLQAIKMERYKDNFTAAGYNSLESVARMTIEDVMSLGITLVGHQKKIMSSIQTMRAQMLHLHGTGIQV

[6] = target: Citron Rho-interacting kinase (Homo sapiens) (UniProt O14578); experiment: Inhibition of recombinant human CRIK assessed as residual activity at 10 uM using KKLRRTLSVA as substrate measured after 120 mins in presence of [gamma33P]ATP by scintillation counting method
Tubulin (Homo sapiens) = Tubulin (Homo sapiens) (UniProt P68371+Q9H4B7+P0DPH7+P68366+Q13509+Q71U36+P04350+Q3ZCM7+P07437+P68363+Q9BQE3+Q6PEY2+Q13885+Q9BVA1+Q9BUF5); experiment: Disruption of microtubule network in human HCT116 cells assessed as microtubule disorganization at 50 nM for 18 hrs by FITC/DAPI staining-based confocal microscopic analysis; format: cell-based
[7] = target: Calcium/calmodulin-dependent protein kinase type II subunit gamma (Homo sapiens) (UniProt Q13555); experiment: Inhibition of recombinant full-length human CaMK2gamma (1 to 330 residues) assessed as residual activity at 10 uM using calmodulin as substrate measured after 40 mins in presence of [gamma33P]ATP by scintillation counting method
Sequence of Calcium/calmodulin-dependent protein kinase type II subunit gamma (Homo sapiens) (Q13555 whole entry, the tested form may be a part): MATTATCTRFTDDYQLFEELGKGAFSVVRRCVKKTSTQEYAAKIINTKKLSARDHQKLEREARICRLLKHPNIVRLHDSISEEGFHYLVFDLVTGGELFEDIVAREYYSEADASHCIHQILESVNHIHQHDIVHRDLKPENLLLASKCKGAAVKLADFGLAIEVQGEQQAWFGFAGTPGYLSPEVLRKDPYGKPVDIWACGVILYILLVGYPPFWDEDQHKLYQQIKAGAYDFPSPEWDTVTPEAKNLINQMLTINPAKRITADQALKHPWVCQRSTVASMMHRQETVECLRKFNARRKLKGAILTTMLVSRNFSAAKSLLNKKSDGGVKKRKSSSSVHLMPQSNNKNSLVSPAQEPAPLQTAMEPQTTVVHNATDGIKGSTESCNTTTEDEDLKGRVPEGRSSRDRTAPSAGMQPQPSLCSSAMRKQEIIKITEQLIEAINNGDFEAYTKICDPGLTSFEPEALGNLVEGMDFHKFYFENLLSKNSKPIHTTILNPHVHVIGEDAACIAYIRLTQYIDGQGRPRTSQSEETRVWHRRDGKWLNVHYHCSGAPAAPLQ

[8] = target: Cyclin-dependent kinase 2/cyclin E1 (Homo sapiens) (UniProt P24864+P24941); experiment: Inhibition of recombinant full-length human CDK2/cyclinE assessed as residual activity at 10 uM using histone H1 as substrate measured after 40 mins in presence of [gamma33P]ATP by scintillation counting method; format: protein-complex assay
[9] = target: Cyclin-dependent kinase 5/CDK5 activator 1 (Homo sapiens) (UniProt Q00535+Q15078); experiment: Inhibition of recombinant full-length human CDK5/p25 assessed as residual activity at 10 uM using histone H1 as substrate measured after 40 mins in presence of [gamma33P]ATP by scintillation counting method; format: protein-complex assay
[10] = target: Casein kinase II subunit alpha (Homo sapiens) (UniProt P68400); experiment: Inhibition of recombinant full length human CK2alpha2 assessed as residual activity at 10 uM using RRRDDDSDDD as substrate measured after 40 mins in presence of [gamma33P]ATP by scintillation counting method
Sequence of Casein kinase II subunit alpha (Homo sapiens) (P68400 whole entry, looked up): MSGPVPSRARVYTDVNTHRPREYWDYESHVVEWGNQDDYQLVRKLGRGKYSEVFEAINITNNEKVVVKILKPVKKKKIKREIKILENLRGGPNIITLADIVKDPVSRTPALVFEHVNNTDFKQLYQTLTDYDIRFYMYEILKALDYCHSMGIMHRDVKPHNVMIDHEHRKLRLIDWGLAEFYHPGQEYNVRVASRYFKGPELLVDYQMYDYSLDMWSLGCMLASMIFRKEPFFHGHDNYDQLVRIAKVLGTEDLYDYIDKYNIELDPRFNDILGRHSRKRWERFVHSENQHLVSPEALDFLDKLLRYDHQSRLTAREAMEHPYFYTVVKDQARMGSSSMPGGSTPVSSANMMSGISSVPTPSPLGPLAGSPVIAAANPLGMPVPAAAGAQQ

SW-620 [11] = experiment: Induction of cell cycle arrest in human SW620 cells assessed as accumulation at G2/M phase after 24 hrs by propidium iodide-staining based flow cytometry; format: functional
HCT-116 [12] = experiment: Induction of apoptosis in human HCT116 cells assessed as increase in cleaved PARP expression up to 200 nM measured after 48 hrs by Western blot analysis; format: functional, cell-based
[13] = Toxicity in nude BALB/c mouse xenografted with human HCT116 cells assessed as change in body weight at 80 mg/kg, po administered once daily for 4 weeks measured every 3 days during compound dosing; format: organism-based; details: in vivo
[14] = target: Casein kinase I isoform delta (Homo sapiens) (UniProt P48730); experiment: Inhibition of recombinant human CK1delta (1 to 294 residues) assessed as residual activity at 10 uM using KRRRALS(p)VASLPGL as substrate measured after 40 mins in presence of [gamma33P]ATP by scintillation counting method
[15] = target: Ephrin type-A receptor 3 (Homo sapiens) (UniProt P29320); experiment: Inhibition of recombinant human EphA3 (578 to end residues) assessed as residual activity at 10 uM using poly(Glu, Tyr) 4:1 as substrate measured after 40 mins in presence of [gamma33P]ATP by scintillation counting method
[16] = target: Tyrosine-protein kinase Lck (Homo sapiens) (UniProt P06239); experiment: Inhibition of recombinant full-length human activated Lck assessed as residual activity at 10 uM using KVEKIGEGTYGVVYK as substrate measured after 40 mins in presence of [gamma33P]ATP by scintillation counting method
[17] = target: Mitogen-activated protein kinase kinase kinase 11 (Homo sapiens) (UniProt Q16584); experiment: Inhibition of human MLK3 assessed as residual activity at 10 uM by radiometric method
[18] = target: Ribosomal protein S6 kinase alpha-5 (Homo sapiens) (UniProt O75582); experiment: Inhibition of recombinant human MSK1 (2 to end residues) assessed as residual activity at 10 uM using GRPRTSSFAEGKK as substrate measured after 40 mins in presence of [gamma33P]ATP by scintillation counting method
Sequence of Ribosomal protein S6 kinase alpha-5 (Homo sapiens) (O75582 whole entry, looked up): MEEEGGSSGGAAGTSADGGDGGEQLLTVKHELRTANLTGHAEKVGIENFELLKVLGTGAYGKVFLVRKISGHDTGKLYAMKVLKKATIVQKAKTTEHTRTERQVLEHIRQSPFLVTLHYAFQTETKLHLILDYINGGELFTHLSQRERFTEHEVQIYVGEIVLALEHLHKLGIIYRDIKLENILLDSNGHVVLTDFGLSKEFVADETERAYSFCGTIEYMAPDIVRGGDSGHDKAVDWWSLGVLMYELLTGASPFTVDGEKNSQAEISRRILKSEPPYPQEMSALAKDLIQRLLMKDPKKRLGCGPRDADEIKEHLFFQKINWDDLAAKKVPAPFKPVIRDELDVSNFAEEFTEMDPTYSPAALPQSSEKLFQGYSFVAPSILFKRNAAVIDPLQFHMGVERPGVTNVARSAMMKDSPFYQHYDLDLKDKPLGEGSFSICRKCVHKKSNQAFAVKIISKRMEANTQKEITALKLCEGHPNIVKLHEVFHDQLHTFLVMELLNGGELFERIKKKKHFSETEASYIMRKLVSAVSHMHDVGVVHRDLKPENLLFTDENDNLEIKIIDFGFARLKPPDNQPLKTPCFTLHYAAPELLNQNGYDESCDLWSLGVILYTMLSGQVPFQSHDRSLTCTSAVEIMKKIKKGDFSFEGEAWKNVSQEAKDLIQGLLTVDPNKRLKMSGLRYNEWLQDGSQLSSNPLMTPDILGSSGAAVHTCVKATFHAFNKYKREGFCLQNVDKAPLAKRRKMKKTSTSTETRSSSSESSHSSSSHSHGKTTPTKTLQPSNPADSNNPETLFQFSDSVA

[19] = target: Ribosomal protein S6 kinase alpha-4 (Homo sapiens) (UniProt O75676); experiment: Inhibition of recombinant human MSK2 (2 to end residues) assessed as residual activity at 10 uM using GRPRTSSFAEGKK as substrate measured after 40 mins in presence of [gamma33P]ATP by scintillation counting method
[20] = target: [Pyruvate dehydrogenase (acetyl-transferring)] kinase isozyme 4, mitochondrial (Homo sapiens) (UniProt Q16654); experiment: Inhibition of recombinant full-length human PDHK4 assessed as residual activity at 10 uM using KKKYHGHSMSDPGVSYRT as substrate measured after 40 mins in presence of [gamma33P]ATP by scintillation counting method
Sequence of [Pyruvate dehydrogenase (acetyl-transferring)] kinase isozyme 4, mitochondrial (Homo sapiens) (Q16654 whole entry, looked up): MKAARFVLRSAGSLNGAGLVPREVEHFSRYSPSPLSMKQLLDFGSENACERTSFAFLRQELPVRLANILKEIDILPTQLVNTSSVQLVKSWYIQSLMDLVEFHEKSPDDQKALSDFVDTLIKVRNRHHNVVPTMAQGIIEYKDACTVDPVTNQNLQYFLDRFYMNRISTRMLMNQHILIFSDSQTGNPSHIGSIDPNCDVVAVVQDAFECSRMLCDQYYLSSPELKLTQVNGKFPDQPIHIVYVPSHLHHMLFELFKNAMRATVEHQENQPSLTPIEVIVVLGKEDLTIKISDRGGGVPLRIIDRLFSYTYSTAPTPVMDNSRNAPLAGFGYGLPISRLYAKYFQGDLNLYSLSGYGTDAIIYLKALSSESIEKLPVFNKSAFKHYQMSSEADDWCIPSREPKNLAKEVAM

[21] = target: Macrophage-stimulating protein receptor (Homo sapiens) (UniProt Q04912); experiment: Inhibition of human Ron (983 to end residues) using GGMEDIYFEFMGGKKK as substrate measured after 40 mins in presence of [gamma33P]ATP by scintillation counting method; design: scale not given: the % may be the effect or the level left
Sequence of Macrophage-stimulating protein receptor (Homo sapiens) (Q04912 25-304 limits assumed): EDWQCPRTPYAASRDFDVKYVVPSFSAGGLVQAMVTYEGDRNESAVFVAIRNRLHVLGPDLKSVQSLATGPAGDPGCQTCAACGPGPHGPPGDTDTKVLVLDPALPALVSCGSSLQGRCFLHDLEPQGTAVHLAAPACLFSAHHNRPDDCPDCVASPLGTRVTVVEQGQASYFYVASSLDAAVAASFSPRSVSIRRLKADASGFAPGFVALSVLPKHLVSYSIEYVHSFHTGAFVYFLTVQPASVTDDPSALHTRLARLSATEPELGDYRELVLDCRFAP
Sequence of Macrophage-stimulating protein receptor (Homo sapiens) (Q04912 310-1400 limits assumed): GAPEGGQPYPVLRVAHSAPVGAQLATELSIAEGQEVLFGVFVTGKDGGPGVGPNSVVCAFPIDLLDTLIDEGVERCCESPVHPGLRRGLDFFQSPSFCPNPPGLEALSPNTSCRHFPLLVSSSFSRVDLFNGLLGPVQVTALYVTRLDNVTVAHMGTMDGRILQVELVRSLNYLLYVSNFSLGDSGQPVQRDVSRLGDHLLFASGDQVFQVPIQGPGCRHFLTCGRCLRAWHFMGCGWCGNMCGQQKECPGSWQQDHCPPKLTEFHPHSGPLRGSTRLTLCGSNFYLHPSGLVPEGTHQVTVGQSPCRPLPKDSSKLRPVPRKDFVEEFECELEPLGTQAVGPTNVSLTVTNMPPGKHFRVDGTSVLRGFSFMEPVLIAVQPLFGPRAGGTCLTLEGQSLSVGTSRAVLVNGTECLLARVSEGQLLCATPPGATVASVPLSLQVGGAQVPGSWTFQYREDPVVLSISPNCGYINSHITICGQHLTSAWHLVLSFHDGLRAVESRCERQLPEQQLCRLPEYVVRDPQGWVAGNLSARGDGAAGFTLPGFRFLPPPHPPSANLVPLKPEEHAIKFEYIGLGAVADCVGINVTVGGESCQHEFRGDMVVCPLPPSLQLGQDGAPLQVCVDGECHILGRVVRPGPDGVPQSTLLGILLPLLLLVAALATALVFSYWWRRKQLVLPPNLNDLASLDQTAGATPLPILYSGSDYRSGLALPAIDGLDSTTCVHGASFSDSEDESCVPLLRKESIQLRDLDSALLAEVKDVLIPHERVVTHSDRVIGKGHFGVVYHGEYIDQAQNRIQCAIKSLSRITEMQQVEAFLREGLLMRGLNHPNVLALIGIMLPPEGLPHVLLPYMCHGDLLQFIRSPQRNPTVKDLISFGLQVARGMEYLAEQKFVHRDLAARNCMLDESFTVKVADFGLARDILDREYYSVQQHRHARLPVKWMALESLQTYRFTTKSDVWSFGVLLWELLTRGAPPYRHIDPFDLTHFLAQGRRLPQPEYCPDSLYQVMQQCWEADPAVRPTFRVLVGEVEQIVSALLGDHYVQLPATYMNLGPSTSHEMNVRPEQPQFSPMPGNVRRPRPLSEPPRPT

Homo sapiens [22] = organism: Homo sapiens; experiment: Inhibition of human Ros V2262A mutant (1883 to end residues) using KKKSPGEYVNIEFG as substrate measured after 40 mins in presence of [gamma33P]ATP by scintillation counting method; design: scale not given: the % may be the effect or the level left
[23] = Toxicity in nude BALB/c mouse assessed as change in albumin level at 40 to 80 mg/kg, po once daily for 4 weeks measured post-last dose; format: organism-based; details: in vivo, 672 h
[24] = Toxicity in nude BALB/c mouse assessed as change in platelet level at 40 to 80 mg/kg, po once daily for 4 weeks measured post-last dose; format: organism-based; details: in vivo, 672 h
HCT-116 [25] = experiment: Induction of apoptosis in human HCT116 cells assessed as early apoptotic cells at 100 nM measured after 48 hrs by Annexin V-FITC/propidium iodide staining-based flow cytometry (reference value: 0.418%); format: functional

Question: What does the source list for Cc1cc(C)c(CNc2nc(Cl)nc3c2ncn3C2CCCC2)c(=O)[nH]1?
Answer: inhibition at 0.05 µM (SW-620 [1]): 100%; Activity [2]: 126%; Activity [3]: 126%; Activity (Homo sapiens [4]): 123%; Activity [5]: 98.5%; Activity [6]: 109%; Activity (Tubulin (Homo sapiens)): Active; Activity [7]: 99.5%; Activity [8]: 115%; Activity [9]: 94%; Activity [10]: 89.5%; Activity (SW-620 [11]): Dose-dependent effect; Activity (HCT-116 [12]): Active; Activity [13]: Non-Toxic; Activity [14]: 103%; Activity [15]: 102%; Activity [16]: 102%; Activity [17]: 104%; Activity [18]: 112%; Activity [19]: 120%; Activity [20]: 95%; Activity [21]: 110%; Activity (Homo sapiens [22]): 102%; Activity [23]: Non-Toxic; Activity [24]: Non-Toxic; Activity (HCT-116 [25]): 5.35%
